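Interpolation was linear, between the two tested concentrations surrounding the appropriate level; five concentrations were tested over 48 hours in 96-well plates. Abbreviation: GI50, concentration required for 50% inhibition of growth.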 Activity calls are given as the source filed them. Cut-off read from the data, not from the text of the source: active = GI50 up to about 1.1 µM and inactive = higher.
Legend:
Test in all cases: DTP human tumour cell line panel, 48 h
NCI-H23 = tested on: NCI-H23
PC-3 = tested on: PC-3
MDA-N = tested on: MDA-N
OVCAR-8 = tested on: OVCAR-8
A498 = tested on: A498
UO-31 = tested on: UO-31
SW-620 = tested on: SW-620
CAKI-1 = tested on: CAKI-1
HCT-116 = tested on: HCT-116
UACC-257 = tested on: UACC-257
HL-60 = tested on: HL-60
SK-MEL-5 = tested on: SK-MEL-5
SF-268 = tested on: SF-268
HOP-62 = tested on: HOP-62
SN12C = tested on: SN12C
NCI-H226 = tested on: NCI-H226
HOP-92 = tested on: HOP-92
SK-MEL-28 = tested on: SK-MEL-28
SF-295 = tested on: SF-295
LOX IMVI = tested on: LOX IMVI
MDA-MB-435 = tested on: MDA-MB-435
COLO 205 = tested on: COLO 205
UACC-62 = tested on: UACC-62
CCRF-CEM = tested on: CCRF-CEM
HT-29 = tested on: HT-29
SR = tested on: SR
SF-539 = tested on: SF-539
HCC 2998 = tested on: HCC 2998
BT-549 = tested on: BT-549
DU-145 = tested on: DU-145
786-0 = tested on: 786-0
M14 = tested on: M14
MCF7 = tested on: MCF7
SK-MEL-2 = tested on: SK-MEL-2
HCT-15 = tested on: HCT-15
OVCAR-3 = tested on: OVCAR-3
U-251 = tested on: U-251
K562 = tested on: K562
MOLT-4 = tested on: MOLT-4
NCI-H522 = tested on: NCI-H522
SK-OV-3 = tested on: SK-OV-3
OVCAR-4 = tested on: OVCAR-4
RXF 393 = tested on: RXF 393
EKVX = tested on: EKVX
ACHN = tested on: ACHN
TK-10 = tested on: TK-10
KM12 = tested on: KM12
NCI/ADR-RES = tested on: NCI/ADR-RES
OVCAR-5 = tested on: OVCAR-5
SNB-75 = tested on: SNB-75
IGROV-1 = tested on: IGROV-1
MDA-MB-231 = tested on: MDA-MB-231
SNB-19 = tested on: SNB-19
A549 = tested on: A549
NCI-H460 = tested on: NCI-H460
RPMI-8226 = tested on: RPMI-8226

`CC(=O)NC1(c2cc3ccccc3s2)CCCCCC1` was tested, and the GI50 (NCI-H23) was 35.2 µM (inactive), the GI50 (PC-3) was 27.4 µM (inactive) and the GI50 (MDA-N) was 48.4 µM (inactive). For the same molecule, the GI50 (OVCAR-8) was 50.9 µM (inactive), the GI50 (A498) was 43.4 µM (inactive) and the GI50 (UO-31) was 37.2 µM (inactive). The GI50 (SW-620) was 47.1 µM (inactive), the GI50 (CAKI-1) was 52.6 µM (inactive) and the GI50 (HCT-116) was 35.3 µM (inactive). The GI50 (UACC-257) was 40 µM (inactive), the GI50 (HL-60) was 23.4 µM (inactive) and the GI50 (SK-MEL-5) was 27.1 µM (inactive). For the same molecule, the GI50 (SF-268) was 21.3 µM (inactive), the GI50 (HOP-62) was 46.7 µM (inactive) and the GI50 (SN12C) was 42.3 µM (inactive). The GI50 (NCI-H226) was 42.3 µM (inactive), the GI50 (HOP-92) was 59.3 µM (inactive) and the GI50 (SK-MEL-28) was 54 µM (inactive). For the same molecule, the GI50 (SF-295) was 33.7 µM (inactive), the GI50 (LOX IMVI) was 47.9 µM (inactive) and the GI50 (MDA-MB-435) was 35.5 µM (inactive). The GI50 (COLO 205) was 22 µM (inactive), the GI50 (UACC-62) was 31.3 µM (inactive) and the GI50 (CCRF-CEM) was 20.7 µM (inactive). For the same molecule, the GI50 (HT-29) was 34.3 µM (inactive), the GI50 (SR) was 28.4 µM (inactive) and the GI50 (SF-539) was 51.5 µM (inactive). The GI50 (HCC 2998) was 61.2 µM (inactive), the GI50 (BT-549) was 58.9 µM (inactive) and the GI50 (DU-145) was 51.3 µM (inactive). The GI50 (786-0) was 34.7 µM (inactive), the GI50 (M14) was 42 µM (inactive) and the GI50 (MCF7) was 37.2 µM (inactive). For the same molecule, the GI50 (SK-MEL-2) was 33 µM (inactive), the GI50 (HCT-15) was 33.7 µM and the GI50 (OVCAR-3) was 21.6 µM (inactive). For the same molecule, the GI50 (U-251) was 40.8 µM (inactive), the GI50 (K562) was 23.8 µM (inactive) and the GI50 (MOLT-4) was 18.5 µM (inactive). The GI50 (NCI-H522) was 20.7 µM (inactive), the GI50 (SK-OV-3) was 37.1 µM (inactive) and the GI50 (OVCAR-4) was 38.5 µM (inactive). For the same molecule, the GI50 (RXF 393) was 29.6 µM (inactive), the GI50 (EKVX) was 19.1 µM (inactive) and the GI50 (ACHN) was 43.9 µM (inactive). The GI50 (TK-10) was 47.5 µM (inactive), the GI50 (KM12) was 41.8 µM (inactive) and the GI50 (NCI/ADR-RES) was 38.3 µM (inactive). The GI50 (OVCAR-5) was 36.7 µM (inactive), the GI50 (SNB-75) was 31 µM (inactive) and the GI50 (IGROV-1) was 66.4 µM (inactive). For the same molecule, the GI50 (MDA-MB-231) was 40.4 µM (inactive), the GI50 (SNB-19) was 74.5 µM (inactive) and the GI50 (A549) was 38.9 µM (inactive). The GI50 (NCI-H460) was 36.6 µM (inactive).
For `CSc1nncc(-c2cc3c(c(SC)n2)CCCC3)n1`, the GI50 (NCI-H23) was > 100 µM (inactive), the GI50 (PC-3) was > 100 µM (inactive) and the GI50 (MDA-N) was > 100 µM (inactive). For the same molecule, the GI50 (OVCAR-8) was 54.8 µM (inactive), the GI50 (A498) was > 100 µM (inactive) and the GI50 (UO-31) was > 100 µM (inactive). The GI50 (SW-620) was > 100 µM (inactive), the GI50 (CAKI-1) was 61.5 µM (inactive) and the GI50 (HCT-116) was > 100 µM (inactive). The GI50 (UACC-257) was > 100 µM (inactive), the GI50 (HL-60) was > 100 µM (inactive) and the GI50 (SK-MEL-5) was > 100 µM (inactive). For the same molecule, the GI50 (RPMI-8226) was > 100 µM (inactive), the GI50 (SF-268) was 26.9 µM (inactive) and the GI50 (HOP-62) was 30.5 µM (inactive). The GI50 (SN12C) was > 100 µM (inactive), the GI50 (NCI-H226) was > 100 µM (inactive) and the GI50 (SK-MEL-28) was > 100 µM (inactive). For the same molecule, the GI50 (SF-295) was > 100 µM (inactive), the GI50 (MDA-MB-435) was > 100 µM (inactive) and the GI50 (COLO 205) was > 100 µM (inactive). The GI50 (UACC-62) was > 100 µM (inactive), the GI50 (CCRF-CEM) was > 100 µM (inactive) and the GI50 (HT-29) was > 100 µM (inactive). The GI50 (SR) was > 100 µM (inactive), the GI50 (SF-539) was > 100 µM (inactive) and the GI50 (HCC 2998) was > 100 µM (inactive). For the same molecule, the GI50 (BT-549) was > 100 µM (inactive), the GI50 (DU-145) was > 100 µM (inactive) and the GI50 (786-0) was > 100 µM (inactive). For the same molecule, the GI50 (M14) was > 100 µM (inactive), the GI50 (SK-MEL-2) was > 100 µM (inactive) and the GI50 (HCT-15) was greater than 100 µM. The GI50 (OVCAR-3) was > 100 µM (inactive), the GI50 (U-251) was > 100 µM (inactive) and the GI50 (K562) was > 100 µM (inactive). For the same molecule, the GI50 (MOLT-4) was > 100 µM (inactive), the GI50 (NCI-H522) was 53.7 µM (inactive) and the GI50 (SK-OV-3) was 40.1 µM (inactive). The GI50 (OVCAR-4) was > 100 µM (inactive), the GI50 (RXF 393) was 47.3 µM (inactive) and the GI50 (EKVX) was > 100 µM (inactive). For the same molecule, the GI50 (ACHN) was > 100 µM (inactive), the GI50 (TK-10) was > 100 µM (inactive) and the GI50 (KM12) was > 100 µM (inactive). The GI50 (NCI/ADR-RES) was > 100 µM (inactive), the GI50 (OVCAR-5) was > 100 µM (inactive) and the GI50 (SNB-75) was 60.7 µM (inactive). For the same molecule, the GI50 (MDA-MB-231) was > 100 µM (inactive), the GI50 (SNB-19) was > 100 µM (inactive) and the GI50 (A549) was > 100 µM (inactive). For the same molecule, the GI50 (NCI-H460) was > 100 µM (inactive).

Source: ChEMBL document CHEMBL1201862, “PubChem BioAssay data set” (2004)
